# Measurements taken from US20200404919A1, “USE OF HETEROARYL-TRIAZOLE AND HETEROARYL-TETRAZOLE COMPOUNDS AS PESTICIDES IN PLANT PROTECTION” (Bayer Aktiengesellschaft, priority 2018, published 2020).
# Experiments:
# Type in all cases: in vivo
# [1] = system: Spodoptera frugiperda; experiment: Spodoptera frugiperda - spray test; conditions: in Zea mays, 168 h, read-out: mortality in %
# Procedure, shortened: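 Read-out: % larval mortality at day 7, where 100% means all killed and 0% none killed. Compound diluted in water with 1000 ppm emulsifier, sprayed onto Zea mays leaf sections; dried sections then infested with S. frugiperda larvae.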
# [2] = system: Aphis gossypii; experiment: Aphis gossypii - oral test; conditions: 120 h, read-out: mortality in %
# Procedure, shortened: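 Oral exposure: compound solution, prepared from acetone concentrate diluted in water, combined with sugar-supplemented IPL41 medium and sealed under parafilm for aphid feeding. Percent kill recorded at day 5.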
# [3] = system: Diabrotica balteata; experiment: Diabrotica balteata - spray test; conditions: 168 h, 160 μg/well, germinated wheat seeds, larvae, after 7 days, read-out: efficacy in %
# Procedure, shortened: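 Efficacy (%) read 7 days after infesting treated seedlings with 10-20 banded cucumber beetle larvae, 100% meaning growth as in uninfected untreated control and 0% no growth. Test solutions in water containing 1000 ppm emulsifier were sprayed onto wheat seeds germinated for 1 day on agar.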
# [4] = system: Nilaparvata lugens; experiment: Nilaparvata lugens - spray test 1; conditions: in Oryza sativa, 96 h, read-out: mortality in %, 500 g/ha, rice plants, after 4 days
# Procedure, shortened: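 Mortality (%) was scored 4 days after infesting treated plants with brown planthopper, where 100% means all insects were killed. Compound was applied by spraying rice (Oryza sativa) at the desired concentration, diluted in water carrying 1000 ppm emulsifier.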
# [5] = system: Culex quinquefasciatus; experiment: Culex test (CULXFAS surface treatment & contact assay); conditions: 30 minutes exposure, 24 hours after contact, read-out: efficacy (mortality in percent); for mortality at 4 mg/m2: surface concentration 4 mg/m^2, glazed tile; for mortality at 20 mg/m2: surface concentration 20 mg/m^2, glazed tile
# Protocol: Culex Test (CULXFAS Surface Treatment & Contact Assay)
# Solvent: Acetone+2000 ppm rapeseed oil methyl ester (RME)
# (§1) In order to produce a sufficient, active ingredient containing solution it is necessary to solve the test-compound in an acetone/RME solvent mixture. This solution is pipetted onto a glazed tile and after evaporation of the acetone, adult mosquitoes of the species Culex quinquefasciatus (Brown house mosquito) are placed onto the dried surface. The exposure time is 30 minutes.
# (§2) Mortality in percent (%) is determined 24 hours after contact to the treated surface. 100% mortality means that all test-insects are dead, whereas 0% means that not a single insect died.
# [6] = system: Phaedon cochleariae; experiment: Phaedon cochleariae - spray test; conditions: in Brassica rapa, foliar, 168 h, read-out: mortality in %
# Procedure, shortened: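 Mortality read 7 days after infestation; 100% means every larva dead, 0% none. Larvae placed on dried Chinese cabbage leaf disks previously sprayed with compound preparation diluted in emulsifier-containing water (1000 ppm).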
# [7] = system: Nezara viridula; experiment: Nezara viridula - spray test 1; conditions: in Hordeum vulgare, 96 h, read-out: mortality in %
# Procedure, shortened: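 Percent kill of Nezara viridula larvae was read 4 days after spraying infested barley (Hordeum vulgare). The spray was the compound concentrate diluted in 1000 ppm emulsifier-containing water.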
# [8] = system: Blattella germanica strain PAULINIA; experiment: Blattella germanica test (BLTTGE surface treatment & contact assay); conditions: 30 minutes exposure, 24 hours after contact, read-out: efficacy (mortality in percent); for mortality at 4 mg/m2: surface concentration 4 mg/m^2, glazed tile; for mortality at 20 mg/m2: surface concentration 20 mg/m^2, glazed tile
# Protocol: Blattella germanica Test (BLTTGE Surface Treatment & Contact Assay)
# (§3) Solvent: Aceton+2000 ppm Rapeseed oil methyl ester (RME)
# as §1, with “animals” for “mosquitoes”, “Blattella germanica strain PAULINIA” for “Culex quinquefasciatus (Brown house mosquito)”
# as §2
# [9] = system: Myzus persicae; experiment: Myzus persicae - oral test; conditions: 120 h, read-out: mortality in %
# Procedure, shortened: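 Scoring at day 5 gives percent mortality (0% none, 100% all killed) of a mixed aphid population that sucked compound preparation in sugar-supplemented IPL41 medium through a parafilm seal.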
# [10] = system: Tetranychus urticae; experiment: Tetranychus urticae - spray test OP-resistant; conditions: foliar, 144 h, French bean leaf disks, all instars, after 6 days
# Protocol: Tetranychus urticae—Spray Test OP-Resistant
# To produce a suitable preparation of active compound, 1 part by weight of active compound is mixed with the stated amount of solvents and is diluted with water, containing an emulsifier concentration of 1000 ppm, to the desired concentration. Further test concentrations are prepared by dilution with emulsifier containing water.
# French bean (Phaseolus vulgaris) leaf disks infected with all instars of the two spotted spidermite (Tetranychus urticae), are sprayed with a preparation of the active ingredient of the desired concentration.
# After 6 days mortality in % is determined. 100% means all spider mites have been killed and 0% means none of the spider mites have been killed.
# [11] = system: Musca domestica strain WHO-N; experiment: Musca domestica test (MUSCDO surface treatment & contact assay); conditions: 30 minutes exposure, 24 hours after contact, read-out: efficacy (mortality in percent); for mortality at 4 mg/m2: surface concentration 4 mg/m^2, glazed tile; for mortality at 20 mg/m2: surface concentration 20 mg/m^2, glazed tile
# Protocol: Musca domestica Test (MUSCDO Surface Treatment & Contact Assay)
# as §3
# as §1, with “flies” for “mosquitoes”, “Musca domestica strain WHO-N” for “Culex quinquefasciatus (Brown house mosquito)”
# as §2
# [12] = system: Aedes aegypti strain MONHEIM; experiment: Aedes test (AEDSAE surface treatment & contact assay); conditions: 30 minutes exposure, 24 hours after contact, read-out: efficacy (mortality in percent); for mortality at 4 mg/m2: surface concentration 4 mg/m^2, glazed tile; for mortality at 20 mg/m2: surface concentration 20 mg/m^2, glazed tile
# Protocol: Aedes Test (AEDSAE Surface Treatment & Contact Assay)
# Solvent: Aceton+2000 ppm rapeseed oil methyl ester (RME)
# as §1, with “Aedes aegypti strain MONHEIM” for “Culex quinquefasciatus (Brown house mosquito)”
# as §2
# [13] = system: Meloidogyne incognita; experiment: Meloidogyne incognita - test; conditions: 336 h, salad seedlings in sand, after 14 days, read-out: nematicidal activity (percentage of gall formation)
# Protocol: Meloidogyne incognita—Test
# Solvent: 125.0 parts by weight of acetone
# To produce a suitable preparation of active compound, 1 part by weight of active compound is mixed with the stated amount of solvent, and the concentrate is diluted with water to the desired concentration.
# Vessels are filled with sand, a solution of the active ingredient, a suspension containing eggs and larvae of the southern root-knot nematode (Meloidogyne incognita) and salad seeds. The salad seeds germinate and the seedlings grow. Galls develop in the roots.
# After 14 days the nematicidal activity is determined on the basis of the percentage of gall formation. 100% means no galls were found and 0% means the number of galls found on the roots of the treated plants was equal to that in untreated control plants.
SMILES,mortality at 500 g/ha [1] [%],mortality at 100 ppm [2] [%],"pest or weed control at 160 µg/disc, 160 µg/well [3] [%]",mortality at 500 g/ha [4] [%],mortality at 4 mg/m2 [5] [%],mortality at 20 mg/m2 [5] [%],mortality at 500 g/ha [6] [%],mortality at 500 g/ha [7] [%],mortality at 4 mg/m2 [8] [%],mortality at 20 mg/m2 [8] [%],mortality at 20 ppm [9] [%],mortality at 500 g/ha [10] [%],mortality at 4 mg/m2 [11] [%],mortality at 20 mg/m2 [11] [%],mortality at 4 mg/m2 [12] [%],mortality at 20 mg/m2 [12] [%],pest or weed control at 20 ppm [13] [%]
"CC(c1ncnn1-c1ncccn1)N(CC1CC1)C(=O)c1cc(Cl)cc(OC(F)(F)F)c1 (stereo not shown) [Compound I-37, 3-chloro-N-(cyclopropylmethyl)-N-[1-(2-pyrimidin-2-yl-1,2,4-triazol-3-yl)ethyl]-5-(trifluoromethoxy)benzamide]",100,100,100,100,80 to 100,80 to 100,100,100,80 to 100,80 to 100,100,90,80 to 100,80 to 100,80 to 100,80 to 100,
"C#CCN(C(=O)c1cc(Cl)cc(C(F)(F)F)c1)C(C)c1ncnn1-c1ncccn1 (stereo not shown) [Compound I-41, 3-chloro-N-prop-2-ynyl-N-[1-(2-pyrimidin-2-yl-1,2,4-triazol-3-yl)ethyl]-5-(trifluoromethyl)benzamide]",100,100,100,100,,,100,100,,,100,90,,,,,
"CC(c1ncnn1-c1ncccn1)N(CC1CC1)C(=O)c1cc(C(F)(F)F)cc(C(F)(F)F)c1 (stereo not shown) [Compound I-48, N-(cyclopropylmethyl)-N-[1-(2-pyrimidin-2-yl-1,2,4-triazol-3-yl)ethyl]-3,5-bis(trifluoromethyl)benzamide]",100,100,100,100,80 to 100,80 to 100,100,100,80 to 100,80 to 100,100,,80 to 100,80 to 100,80 to 100,80 to 100,100
"CC(c1ncnn1-c1ncc(F)cn1)N(CC1CC1)C(=O)c1cc(Cl)cc(C(F)(F)F)c1 (stereo not shown) [Compound I-81, 3-chloro-N-(cyclopropylmethyl)-N-[1-[2-(5-fluoropyrimidin-2-yl)-1,2,4-triazol-3-yl]ethyl]-5-(trifluoromethyl)benzamide]",100,100,100,100,80 to 100,80 to 100,100,100,80 to 100,80 to 100,100,80,80 to 100,80 to 100,80 to 100,80 to 100,
CC(c1ncnn1-c1nccc(C(F)(F)F)n1)N(CC1CC1)C(=O)c1cc(Cl)cc(C(F)(F)F)c1 (stereo not shown) [Compound I-82],100,100,100,100,,,100,100,,,100,80,,,,,100
CC(c1ncnn1-c1ncccn1)N(CC1CC1)C(=O)c1cccc(SC(F)(F)F)c1 (stereo not shown) [Compound I-83],83,100,100,100,,,100,100,,,100,100,,,,,
CC(c1ncnn1-c1ncccn1)N(CC1CC1)C(=O)c1cc(Cl)cc(Cl)c1 (stereo not shown) [Compound I-95],100,100,100,90,,,100,100,,,100,,,,,,90
"CCN(C(=O)c1cc(Cl)cc(C(F)(F)F)c1)C(C)c1ncnn1-c1ncccn1 (stereo not shown) [Compound I-97, 3-chloro-N-ethyl-N-[1-(2-pyrimidin-2-yl-1,2,4-triazol-3-yl)ethyl]-5-(trifluoromethyl)benzamide]",100,100,100,100,,,100,100,,,100,80,,,,,
"CC(c1ncnn1-c1ncccn1)N(CC1CC1)C(=O)c1cc(Cl)cc(SC(F)(F)F)c1 (stereo not shown) [Compound I-107, 3-chloro-N-(cyclopropylmethyl)-N-[1-(2-pyrimidin-2-yl-1,2,4-triazol-3-yl)ethyl]-5-(trifluoromethylsulfanyl)benzamide]",100,100,100,100,,,100,100,,,100,,,,,,90
CC(c1ncnn1-c1ccncn1)N(CC1CC1)C(=O)c1cc(Cl)cc(C(F)(F)F)c1 (stereo not shown) [Compound I-110],100,100,100,100,,,100,100,,,100,95,,,,,
CC(c1ncnn1-c1cncnc1)N(CC1CC1)C(=O)c1cc(Cl)cc(C(F)(F)F)c1 (stereo not shown) [Compound I-112],,,100,,,,,,,,,90,,,,,
C[C@H](NC(=O)c1cc(Cl)cc(C(F)(F)F)c1)c1ncnn1-c1ncccc1Cl [Compound I-116],100,100,100,100,,,100,100,,,90,95,,,,,
